These results are taken from US11352329B2, “HIV protease inhibitors” (Gilead Sciences, Inc., priority 2017, dated 2022).

In data set [1] the test system is HIV-1 (IIIB) in MT-4 cells. The data set can be described thus: microbe, parasite or virus in culture. In kind it is cell-based.
The nature of data set [2]: Liver microsomal stability, human. It is filed as in vitro ADME. The following applies: liver microsomes, read-out: Half-lives. As to the method: Test compounds and one control compound (verapamil) were tested in 3 different species in duplicate sets.
Test compound concentration: 1 uM; Protein concentration: 0.5 mg/mL (for dog, rat, and human liver microsomes); Cofactor: NADPH-Regenerating system (NRS) solution; Time-points: 2, 12, 25, 45, and 65 minutes.
Reaction Composition (in Each Incubation Well) Contains:
At an incubation temperature of 37° C., the reaction was started with addition of NADPH Regeneration System, at each time point, 25 uL of the reaction mixture was removed and added to a plate with 225 uL quenching solution (50% MeOH, 25% ACN, 25% H2O, and 200 nM labetalol as internal standard). After plates were vortexed, they were centrifuged for 30 minutes to remove proteins. About 100 μL supernatant was removed to a new plate and diluted with 150 μL water. About 20 μL of the mixture was injected into LC/MS/MS system to monitor the compound's response. In vitro measured t½ was used to calculate Clint values.
In general terms: Liver microsomes are vesicles of endoplasmic reticulum, rich in cytochrome P450 enzymes.

Where [3] appears, read: Human immunodeficiency virus 1, IIIB, MT4, MT-4 cells.

Read-outs that look alike come from different tables or passages of the source.

The EC50 is the concentration at which the effect is half-maximal. Take `CC(C)(C)C[C@]1(c2ccc(-c3cn(C4CC4)nn3)cc2)NC(=N)N([C@H](COC(=O)NC2(C(F)(F)F)CC2)c2ccc(Cl)c(-n3ncnc3C(F)F)c2)C1=O` [Compound 232]: the EC50 in data set [1] (setting [3]) stood at 18.2 nM.

In the case of `CC(C)(C)C[C@]1(c2ccc(-c3cnn(C(F)F)c3)cc2)NC(=N)N([C@H](COC(=O)N[C@@H]2C[C@H]2C(F)(F)F)c2ccc(Cl)c(-n3ncnc3C(F)F)c2)C1=O` (single isomer, unassigned) [Compound 331], the half-life at 1 uM in data set [2] was at least 6.58 h.

As for `CC(C)(C)C[C@]1(c2ccc(-c3cnn(C(F)F)c3)c(F)c2)NC(=N)N([C@H](COC(=O)NCC(C)(F)F)c2ccc(Cl)c(-n3ncnc3C(F)F)c2)C1=O` [Compound 299], the concentration giving a half-maximal response (EC50) in data set [1] (MT-4 cells, read-out: MT4 EC50) was determined as 13 nM.

`CC(C)(C)C[C@]1(c2ccc(-c3cnn(C(F)F)c3)cc2)NC(=N)N([C@H](COC(=O)NC2(C(F)(F)F)CC2)c2ccc(-n3ncnc3C(F)F)c(F)c2)C1=O` [Compound 379] gave an EC50 in data set [1] (setting [3]) of 134 nM.

`CC(C)(C)C[C@]1(c2ccc(-c3cnccn3)cc2)NC(=N)N([C@H](COC(=O)NC2(C(F)(F)F)CC2)c2ccc(Cl)c(-c3ncn[nH]3)c2)C1=O` [Compound 26]: in data set [1] (MT-4 cells, read-out: MT4 EC50), the EC50 was determined as 102 nM.

`CC(C)(C)C[C@]1(c2ccc(-c3cnn(C(F)F)c3)cc2)NC(=N)N([C@H](COC(=O)NC2(C(F)(F)F)CC2)c2ccc(F)c(-n3ncnc3C(F)F)c2)C1=O` [Compound 380] showed an EC50 in data set [1] (setting [3]) of 29.2 nM. In addition, the half-life at 1 uM in data set [2] was at least 6.58 h.

In data set [1] (setting [3]), `CC(C)(C)C[C@]1(c2ccc(-c3cnn(C(C)(C)C)n3)cc2)NC(=N)N([C@H](COC(=O)NC2(C(F)(F)F)CC2)c2ccc(Cl)c(-n3ncnc3C(F)F)c2)C1=O` [Compound 371] displayed a concentration giving a half-maximal response (EC50) of 26.7 nM.

As for `CC(C)(C)C[C@]1(c2ccc(-c3cnn(C(F)F)c3)cc2)NC(=N)N([C@H](COC(=O)NC(C)(C)C(F)F)c2ccc(F)c(-c3ncnn3C(F)F)c2)C1=O` [Compound 124], the EC50 in data set [1] (setting [3]) turned out to be 65.3 nM.

Take `[H]/N=C1\N[C@](CC(C)(C)C)(c2ccc(-c3cnn(C(F)F)c3)cc2F)C(=O)N1[C@H](COC(=O)NC1CC1)c1ccc(Cl)c(-c2ncn[nH]2)c1` [Compound 11]: in data set [1] (MT-4 cells, read-out: MT4 EC50), the EC50 came out at 35.5 nM.

Compound `CC(C)(C#N)C[C@]1(c2ccc(-c3cnn(C(F)F)c3)cc2)NC(=N)N([C@H](COC(=O)NC2(C(F)(F)F)CC2)c2ccc(Cl)c(-n3ncnc3C(F)F)c2)C1=O` [Compound 336] had an EC50 in data set [1] (setting [3]) of 74.7 nM. The half-life at 1 uM in data set [2] was at least 6.58 h.

For `COC(=O)N[C@H](C(=O)N[C@@H](Cc1ccccc1)[C@@H](O)CN(Cc1ccc(-c2ccccn2)cc1)NC(=O)[C@@H](NC(=O)OC)C(C)(C)C)C(C)(C)C` [atazanavir, methyl N-[(2S)-1-[2-[(2S,3S)-2-hydroxy-3-[[(2S)-2-(methoxycarbonylamino)-3,3-dimethylbutanoyl]amino]-4-phenylbutyl]-2-[(4-pyridin-2-ylphenyl)methyl]hydrazinyl]-3,3-dimethyl-1-oxobutan-2-yl]carbamate, reference compound], the half-life at 1 uM in data set [2] fell in the range of 0.433 to 1.78 h.

Consider `CC(C)(C)C[C@]1(c2ccc(-c3cnn(C4CC4)c3)cc2)NC(=N)N([C@H](COC(=O)NC2(C(F)(F)F)CC2)c2ccc(Cl)c(-c3ncnn3C(F)F)c2)C1=O` [Compound 164], for which the EC50 in data set [1] (setting [3]) is 16.5 nM.

`CC(C)(C)C[C@]1(c2ccc(-c3cnn(C(F)F)c3)cc2)NC(=N)N([C@H](COC(=O)NC2CC2)c2ccc(Cl)c(-c3nccc(=O)[nH]3)c2)C1=O` [Compound 17]: in data set [1] (setting [3]), the midpoint of the response, the EC50, lay at 556 nM. Further, the half-life at 1 uM in data set [2] was at least 6.58 h.

In data set [1] (setting [3]), `CC(C)(CC#N)C[C@]1(c2ccc(-c3cnn(C4CC4)n3)cc2)NC(=N)N([C@H](COC(=O)NC2(C(F)(F)F)CC2)c2ccc(Cl)c(-n3ncnc3C(F)F)c2)C1=O` [Compound 362] had an EC50 of 36.4 nM.

`CC(C)(C)C[C@]1(c2ccc3ncc(Br)cc3c2)NC(=N)N([C@H](COC(=O)NC(C)(C)C(F)F)c2ccc(Cl)c(-n3ncnc3C(F)F)c2)C1=O` [Compound 327] came in with an EC50 in data set [1] (setting [3]) of 30.7 nM.
